The values below come from ChEMBL document CHEMBL1147265, “Lucidenic acids P and Q, methyl lucidenate P, and other triterpenoids from the fungus Ganoderma lucidum and their inhibitory effects on Epstein-Barr virus activation” (J Nat Prod, 2003).

Data set [1] deals with Raji. The experiment in a line: Inhibition of 12-O-tetradecanoylphorbol-13-acetate-induced EBV-early antigen activation in human Raji cells assessed as EA induction at 10 molar ratio relative to 12-O-tetradecanoylphorbol-13-acetate by immunofluorescence technique. Set-up: scale not given: the % may be the effect or the level left. To be noted: human gammaherpesvirus 4. The class given is cell-based.

In data set [2] the test system is Raji. The experiment in a line: Inhibition of 12-O-tetradecanoylphorbol-13-acetate-induced EBV-early antigen activation in human Raji cells assessed as EA induction at 1000 molar ratio relative to 12-O-tetradecanoylphorbol-13-acetate by immunofluorescence technique. Set-up: scale not given: the % may be the effect or the level left. The class given is cell-based. To be noted: human gammaherpesvirus 4.

Data set [3] is described as follows: Inhibition of 12-O-tetradecanoylphorbol-13-acetate-induced EBV-early antigen activation in human Raji cells assessed per 32 pmol TPA by immunofluorescence technique. The class given is cell-based, human gammaherpesvirus 4.
The nature of data set [4]: Cytotoxicity against human Raji cells assessed as cell viability at 1000 molar ratio by trypan blue staining method. The class given is cell-based. To be noted: read-out: Activity.
In data set [5] the test system is Raji. The experiment in a line: Inhibition of 12-O-tetradecanoylphorbol-13-acetate-induced EBV-early antigen activation in human Raji cells assessed as EA induction at 100 molar ratio relative to 12-O-tetradecanoylphorbol-13-acetate by immunofluorescence technique. The data set is classed as cell-based. Details: scale not given: the % may be the effect or the level left. To be noted: human gammaherpesvirus 4.

In data set [6] the test system is Raji. Kind of data set: Inhibition of 12-O-tetradecanoylphorbol-13-acetate-induced EBV-early antigen activation in human Raji cells assessed as EA induction at 500 molar ratio relative to 12-O-tetradecanoylphorbol-13-acetate by immunofluorescence technique. The class given is cell-based. Details: scale not given: the % may be the effect or the level left. To be noted: human gammaherpesvirus 4.

Consider `CC(=O)OC1C[C@H]([C@H](C)CC/C=C(/C)C(=O)O)[C@@]2(C)CC=C3C(=CC[C@H]4C(C)(C)C(=O)CC[C@]34C)[C@]12C` (some centres undefined), for which the Activity is 95.3% in data set [1], -0% in data set [2], 74.6% in data set [5] and 26.4% in data set [6]. For the same compound, in data set [3], the IC50 worked out at 281 molar ratio. For the same compound, in data set [4], the viability at 1000 molar ratio worked out at 70%.
As for `CC1=C(/C=C/C(C)=C/C=C/C(C)=C/C=C/C=C(C)/C=C/C=C(C)/C=C/C2=C(C)CCCC2(C)C)C(C)(C)CCC1` [BETA CAROTENE], the Activity in data set [1] came out at 100%; in data set [2], 8.6%. In addition, the IC50 in data set [3] is given as 400 molar ratio.
Regarding `C[C@H](CC(=O)C[C@@H](C)[C@H]1CC(=O)[C@@]2(C)C3=C(C(=O)C[C@]12C)[C@@]1(C)CCC(=O)C(C)(C)[C@@H]1CC3=O)C(=O)O` [GANODERIC ACID E], the Activity in data set [1] is 97.4%; in data set [2], -0%; in data set [5], 79%; in data set [6] it was 28.3%. Moreover, the IC50 in data set [3] is recorded as 281 molar ratio. In data set [4], the viability at 1000 molar ratio came to 70%.
`CC(=O)O[C@@H]1C(=O)C2=C(C(=O)C[C@H]3C(C)(C)C(=O)CC[C@]23C)[C@]2(C)C(=O)C[C@H]([C@H](C)CC(=O)CC(C)C(=O)O)[C@@]12C` (some centres undefined) [GANODERIC ACID F]: the Activity came to 98.7% in data set [1], 3.6% in data set [2], 77.1% in data set [5] and 28.5% in data set [6]. For the same compound, in data set [3], the IC50 turned out to be 293 molar ratio. Besides, in data set [4], the viability at 1000 molar ratio is 70%.
Turning to `C[C@H](CCC(=O)O)[C@H]1CC(=O)[C@@]2(C)C3=C(C(=O)C[C@]12C)[C@@]1(C)CCC(=O)C(C)(C)[C@@H]1C[C@@H]3O` [LUCIDENIC ACID A], the Activity in data set [1] was 96.1%; in data set [2], -0%; in data set [5], 73%; in data set [6], 22.7%. Besides, in data set [3], the IC50 was 280 molar ratio. Moreover, the viability at 1000 molar ratio in data set [4] amounted to 70%.
Turning to `C[C@H](CCC(=O)O)[C@H]1CC(=O)[C@@]2(C)C3=C(C(=O)[C@@H](O)[C@]12C)[C@@]1(C)CC[C@H](O)C(C)(C)[C@@H]1C[C@@H]3O` [LUCIDENIC ACID C], the Activity in data set [1] was 93.1%; in data set [2], -0%; in data set [5], 72.6%; in data set [6], 24%. For the same compound, the IC50 in data set [3] was found to be 284 molar ratio. For the same compound, the viability at 1000 molar ratio in data set [4] came to 70%.
For `CC(=O)O[C@@H]1C(=O)C2=C(C(=O)C[C@H]3C(C)(C)C(=O)CC[C@]23C)[C@]2(C)C(=O)C[C@H]([C@H](C)CCC(=O)O)[C@@]12C` [LUCIDENIC ACID D2], the Activity worked out at 96.1% in data set [1], 2% in data set [2], 73.8% in data set [5] and 26.1% in data set [6]. For the same compound, the IC50 in data set [3] amounted to 287 molar ratio. In addition, the viability at 1000 molar ratio in data set [4] was found to be 70%.
For the compound `CC(=O)O[C@@H]1C(=O)C2=C([C@@H](O)C[C@H]3C(C)(C)[C@@H](O)CC[C@]23C)[C@]2(C)C(=O)C[C@H]([C@H](C)CCC(=O)O)[C@@]12C` [LUCIDENIC ACID P], the Activity in data set [1] is 96.6%; in data set [2], -0%; in data set [5], 74.2%; in data set [6], 27.5%. Also, the IC50 in data set [3] worked out at 286 molar ratio. Also, in data set [4], the viability at 1000 molar ratio amounted to 70%.
As to `CC(=O)O[C@@H]1C(=O)C2=C(C(=O)C[C@H]3C(C)(C)[C@@H](O)CC[C@]23C)[C@]2(C)C(=O)C[C@H]([C@H](C)CCC(=O)O)[C@@]12C` [LUDICENIC ACID E2], the Activity in data set [1] was 94%; in data set [2], -0%; in data set [5] it was 73.1%; in data set [6], 23.5%. The compound also gave an IC50 in data set [3] of 280 molar ratio. Also, the viability at 1000 molar ratio in data set [4] amounted to 70%.
Regarding `COC(=O)C(C)CC(=O)C[C@@H](C)[C@H]1CC(=O)[C@@]2(C)C3=C(C(=O)[C@@H](OC(C)=O)[C@]12C)[C@@]1(C)CCC(=O)C(C)(C)[C@@H]1CC3=O` (some centres undefined) [METHYL GANODERATE F], the Activity in data set [1] was found to be 100%; in data set [2] it was 2.3%; in data set [5] it was 75.3%; in data set [6], 26.4%. The IC50 in data set [3] amounted to 289 molar ratio. Further, the viability at 1000 molar ratio in data set [4] worked out at 70%.
For `COC(=O)CC[C@@H](C)[C@H]1CC(=O)[C@@]2(C)C3=C(C(=O)C[C@]12C)[C@@]1(C)CCC(=O)C(C)(C)[C@@H]1C[C@@H]3O` [METHYL LUCIDENATE A], the Activity in data set [1] was 95%; in data set [2], -0%; in data set [5], 75.1%; in data set [6], 24.9%. In data set [3], this compound gave an IC50 of 287 molar ratio. Besides, the viability at 1000 molar ratio in data set [4] is 70%.
In the case of `COC(=O)CC[C@@H](C)[C@H]1CC(=O)[C@@]2(C)C3=C(C(=O)[C@@H](OC(C)=O)[C@]12C)[C@@]1(C)CCC(=O)C(C)(C)[C@@H]1CC3=O` [METHYL LUCIDENATE D2], the Activity was 98% in data set [1], 2.2% in data set [2], 76.9% in data set [5] and 29.3% in data set [6]. Further, in data set [3], the IC50 is on record as 290 molar ratio. Also, in data set [4], the viability at 1000 molar ratio stood at 70%.
As to `COC(=O)CC[C@@H](C)[C@H]1CC(=O)[C@@]2(C)C3=C(C(=O)[C@@H](OC(C)=O)[C@]12C)[C@@]1(C)CC[C@H](O)C(C)(C)[C@@H]1CC3=O` [METHYL LUCIDENATE E2], the Activity was determined as 95.4% in data set [1], 1.2% in data set [2], 76% in data set [5] and 27.9% in data set [6]. In addition, in data set [3], the IC50 came to 288 molar ratio. Also, in data set [4], the viability at 1000 molar ratio came out at 70%.
For the compound `COC(=O)CC[C@@H](C)[C@H]1CC(=O)[C@@]2(C)C3=C(C(=O)C[C@]12C)[C@@]1(C)CCC(=O)C(C)(C)[C@@H]1CC3=O` [METHYL LUCIDENATE F], the Activity in data set [1] was determined as 98.3%; in data set [2], 2.1%; in data set [5], 75.4%; in data set [6], 26.8%. Besides, the IC50 in data set [3] is 285 molar ratio. Also, the viability at 1000 molar ratio in data set [4] was 70%.
Regarding `COC(=O)CC[C@@H](C)[C@H]1CC(=O)[C@@]2(C)C3=C(C(=O)[C@@H](O)[C@]12C)[C@@]1(C)CC[C@H](O)C(C)(C)[C@@H]1CC3=O` [METHYL LUCIDENATE L], the Activity in data set [1] was 92.6%; in data set [2] it was -0%; in data set [5], 71.9%; in data set [6], 21.7%. The IC50 in data set [3] is listed as 275 molar ratio. Also, the viability at 1000 molar ratio in data set [4] was determined as 70%.
Consider `COC(=O)CC[C@@H](C)[C@H]1CC(=O)[C@@]2(C)C3=C(C(=O)[C@@H](OC(C)=O)[C@]12C)[C@@]1(C)CC[C@H](O)C(C)(C)[C@@H]1C[C@@H]3O` [METHYL LUCIDENATE P], for which the Activity in data set [1] came to 97.6%; in data set [2] it was 2.3%; in data set [5], 77.4%; in data set [6], 28.9%. The IC50 in data set [3] was 293 molar ratio. Also, the viability at 1000 molar ratio in data set [4] was 70%.
For `COC(=O)CC[C@@H](C)[C@H]1C[C@H](O)[C@@]2(C)C3=C(C(=O)C[C@]12C)[C@@]1(C)CCC(=O)C(C)(C)[C@@H]1C[C@@H]3O` [METHYL LUCIDENATE Q], the Activity in data set [1] was 95.4%; in data set [2], -0%; in data set [5], 73.7%; in data set [6] it was 24.6%. In addition, the IC50 in data set [3] is 283 molar ratio. Further, the viability at 1000 molar ratio in data set [4] was found to be 70%.
